# Data reported in patent publication US11407767B2, “Heterocyclyl substituted pyrrolopyridines that are inhibitors of the CDK12 kinase” (The University of Nottingham, priority 2017, dated 2022).
# Counter-ions that a name gives are not always drawn.
# Molecular target: CDK12/CycK (Homo sapiens, UniProt Q9NYV4)
# Test: Inhibition of CDK12 (ADP-Glo kinase assay)
# Format: biochemical
# Settings: 60 nM CDK12/CycK, 30 minutes pre-incubation, 1 μM ATP, 0.5 μM RBER-IRStide substrate, 1 h at 25° C., read-out: CDK12/cyclin K IC50
# Protocol: Assay buffer comprised 50 mM HEPES pH 7.5, 1 mM DTT, 20 mM MgCl2, 3 mM MnCl2, 3 μM Na3VO4 and 50 μg/ml PEG8000. Kinase reactions were carried out in 384-well Optiplates™ (PerkinElmer 6007299). Test compounds were dissolved & diluted in dimethyl sulfoxide (DMSO) and cross diluted into assay buffer with a final DMSO concentration of 1% (v/v) in the assay. Test compounds (or 1% DMSO in control and blank wells) were pre-incubated with 60 nM CDK12/CycK for 30 minutes. After this time 1 μM Adenosine-5′-triphosphate (ATP) and 0.5 μM RBER-IRStide substrate (ProQinase 0863-0000-1) were added to commence the kinase reaction. Incubations were carried out for 1 h at 25° C. with kinase activity determined using the ADP-Glo™ reagent from Promega according to the manufacturer's instructions. Light generated is proportional to kinase activity and measured using a luminometer (EnVision, PerkinElmer). The signal obtained in the blank wells (containing no kinase) was subtracted from all other wells and IC50 values were determined by fitting a sigmoidal curve to % inhibition of control versus Log10 compound concentration.
# CDK12/CycK, sequence (Q9NYV4 whole entry): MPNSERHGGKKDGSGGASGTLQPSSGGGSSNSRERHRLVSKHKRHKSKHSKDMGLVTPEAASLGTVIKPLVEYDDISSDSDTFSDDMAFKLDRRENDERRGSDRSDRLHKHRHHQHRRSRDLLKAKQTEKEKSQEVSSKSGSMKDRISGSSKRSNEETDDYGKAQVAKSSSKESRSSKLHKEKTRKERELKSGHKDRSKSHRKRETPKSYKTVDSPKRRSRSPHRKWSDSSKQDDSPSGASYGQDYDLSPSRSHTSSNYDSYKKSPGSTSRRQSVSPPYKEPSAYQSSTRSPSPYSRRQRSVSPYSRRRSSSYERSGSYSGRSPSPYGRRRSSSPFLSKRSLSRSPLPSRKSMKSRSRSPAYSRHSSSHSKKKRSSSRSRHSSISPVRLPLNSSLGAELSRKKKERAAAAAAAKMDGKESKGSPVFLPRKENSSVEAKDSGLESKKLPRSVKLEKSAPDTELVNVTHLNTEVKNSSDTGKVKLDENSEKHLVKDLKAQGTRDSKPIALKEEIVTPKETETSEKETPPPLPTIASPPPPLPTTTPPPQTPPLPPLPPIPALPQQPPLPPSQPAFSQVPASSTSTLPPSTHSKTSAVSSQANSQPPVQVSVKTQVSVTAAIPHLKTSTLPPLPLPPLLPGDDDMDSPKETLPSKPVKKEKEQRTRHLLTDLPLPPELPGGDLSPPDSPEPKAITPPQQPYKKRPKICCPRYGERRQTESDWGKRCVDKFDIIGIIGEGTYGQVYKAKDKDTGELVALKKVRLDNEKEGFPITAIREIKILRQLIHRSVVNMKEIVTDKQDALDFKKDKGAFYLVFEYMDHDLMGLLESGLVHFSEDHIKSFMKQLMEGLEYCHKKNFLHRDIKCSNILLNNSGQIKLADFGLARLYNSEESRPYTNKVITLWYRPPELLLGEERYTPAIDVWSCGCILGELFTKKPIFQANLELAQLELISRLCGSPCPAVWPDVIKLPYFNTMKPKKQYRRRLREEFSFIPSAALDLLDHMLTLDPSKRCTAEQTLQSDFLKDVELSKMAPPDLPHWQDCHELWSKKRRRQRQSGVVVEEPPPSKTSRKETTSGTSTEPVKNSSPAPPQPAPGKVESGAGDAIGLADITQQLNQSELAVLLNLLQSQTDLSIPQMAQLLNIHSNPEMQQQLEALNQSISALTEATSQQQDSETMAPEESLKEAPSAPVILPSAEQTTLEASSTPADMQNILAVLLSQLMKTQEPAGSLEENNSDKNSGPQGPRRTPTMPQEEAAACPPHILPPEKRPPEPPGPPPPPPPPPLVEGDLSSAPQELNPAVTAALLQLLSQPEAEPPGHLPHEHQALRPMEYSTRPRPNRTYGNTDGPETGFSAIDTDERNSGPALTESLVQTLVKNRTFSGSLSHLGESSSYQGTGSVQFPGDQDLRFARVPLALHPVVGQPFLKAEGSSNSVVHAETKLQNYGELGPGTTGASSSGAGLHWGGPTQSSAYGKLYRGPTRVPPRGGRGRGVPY
# CDK12/CycK, sequence (O75909 whole entry partner): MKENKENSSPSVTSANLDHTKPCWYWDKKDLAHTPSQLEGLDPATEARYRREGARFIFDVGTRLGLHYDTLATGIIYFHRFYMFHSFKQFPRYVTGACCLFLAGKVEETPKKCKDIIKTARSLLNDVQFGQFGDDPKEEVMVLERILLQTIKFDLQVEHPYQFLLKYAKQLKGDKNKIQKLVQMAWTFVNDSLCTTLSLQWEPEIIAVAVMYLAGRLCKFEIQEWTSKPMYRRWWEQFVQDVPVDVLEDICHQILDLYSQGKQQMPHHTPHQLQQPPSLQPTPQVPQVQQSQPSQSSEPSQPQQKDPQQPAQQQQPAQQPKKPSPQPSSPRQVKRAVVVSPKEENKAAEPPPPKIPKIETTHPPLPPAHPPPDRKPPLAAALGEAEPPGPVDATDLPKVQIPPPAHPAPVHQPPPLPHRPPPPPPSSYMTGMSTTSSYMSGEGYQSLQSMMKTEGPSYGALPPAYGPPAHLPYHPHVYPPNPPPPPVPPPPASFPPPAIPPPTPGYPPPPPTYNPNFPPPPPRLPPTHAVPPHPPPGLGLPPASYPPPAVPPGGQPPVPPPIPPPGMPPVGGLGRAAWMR
row,Compound,IC50 [µM]
1,"C=CC(=O)N1CCC[C@@H]1C(=O)NCCc1cc2c(-c3ccnn3C)ccnc2[nH]1 [Example 52, (R)-1-Acryloyl-N-(2-(4-(1-methyl-1H-pyrazol-5-yl)-1H-pyrrolo[2,3-b]pyridin-2-yl)ethyl)pyrrolidine-2-carboxamide]",1 to 30
2,"C=CC(=O)N1CCC[C@H]1C(=O)NCCc1cc2c(-c3cnn4ncccc34)c(Cl)cnc2[nH]1 [Example 53, (S)-1-Acryloyl-N-(2-(5-chloro-4-(pyrazolo[1,5-b]pyridazin-3-yl)-1H-pyrrolo[2,3-b]pyridin-2-yl)ethyl)pyrrolidine-2-carboxamide]",< 0.1
3,"C=CC(=O)Nc1cccc(C(=O)NCCc2cc3c(-c4cnn5ncccc45)c(Cl)cnc3[nH]2)c1 [Example 56, 3-Acrylamido-N-(2-(5-chloro-4-(pyrazolo[1,5-b]pyridazin-3-yl)-1H-pyrrolo[2,3-b]pyridin-2-yl)ethyl)benzamide]",< 0.1
4,"C=CC(=O)N[C@H]1COC[C@@H]1C(=O)NCc1cc2c(-c3cnn4ncccc34)ccnc2[nH]1 [Example 58, (3R,4R)-4-Acrylamido-N-((4-(pyrazolo[1,5-b]pyridazin-3-yl)-1H-pyrrolo[2,3-b]pyridin-2-yl)methyl)tetrahydrofuran-3-carboxamide]",1 to 30
5,"C=CC(=O)N[C@@H]1CC[C@@H](C(=O)NCc2cc3c(-c4cnn5ncccc45)ccnc3[nH]2)C1 [Example 59, (1R,3R)-3-Acrylamido-N-((4-(pyrazolo[1,5-b]pyridazin-3-yl)-1H-pyrrolo[2,3-b]pyridin-2-yl)methyl)cyclopentane-1-carboxamide]",1 to 30
6,"C=CC(=O)N1CCOC(C(=O)NCCc2cc3c(-c4cnn5ncccc45)ccnc3[nH]2)C1 (centres unmarked) [Example 60, 4-Acryloyl-N-(2-(4-(pyrazolo[1,5-b]pyridazin-3-yl)-1H-pyrrolo[2,3-b]pyridin-2-yl)ethyl)morpholine-2-carboxamide]",< 0.1
7,"C=CC(=O)N[C@@H]1CC[C@@H](C(=O)NCCc2cc3c(-c4cnn5ncccc45)ccnc3[nH]2)C1 [Example 64, (1R,3R)-3-Acrylamido-N-(2-(4-(pyrazolo[1,5-b]pyridazin-3-yl)-1H-pyrrolo[2,3-b]pyridin-2-yl)ethyl)cyclopentane-1-carboxamide]",0.1 to 1
8,"C=CC(=O)Nc1cncc(C(=O)N2CCC(c3cc4c(-c5cnn6ncccc56)ccnc4[nH]3)C2)c1 (centres unmarked) [Example 65, N-(5-(3-(4-(Pyrazolo[1,5-b]pyridazin-3-yl)-1H-pyrrolo[2,3-b]pyridin-2-yl)pyrrolidine-1-carbonyl)pyridin-3-yl)acrylamide]",< 0.1
9,"CN(C)C/C=C/C(=O)N1CCC(C(=O)N2CCC(c3cc4c(-c5cnn6ncccc56)ccnc4[nH]3)CC2)CC1 [Example 66, (E)-4-(Dimethylamino)-1-(4-(4-(4-(pyrazolo[1,5-b]pyridazin-3-yl)-1H-pyrrolo[2,3-b]pyridin-2-yl)piperidine-1-carbonyl)piperidin-1-yl)but-2-en-1-one]",< 0.1
10,"CN(C)C/C=C/C(=O)N1CC[C@@H](C(=O)N2CCC(c3cc4c(-c5cnn6ncccc56)ccnc4[nH]3)CC2)C1 [Example 67, (R,E)-4-(Dimethylamino)-1-(3-(4-(4-(pyrazolo[1,5-b]pyridazin-3-yl)-1H-pyrrolo[2,3-b]pyridin-2-yl)piperidine-1-carbonyl)pyrrolidin-1-yl)but-2-en-1-one]",< 0.1
11,"CN(C)C/C=C/C(=O)Nc1cncc(C(=O)N2CC[C@H](c3cc4c(-c5cnn6ncccc56)ccnc4[nH]3)C2)c1 [Example 68, (S,E)-4-(Dimethylamino)-N-(5-(3-(4-(pyrazolo[1,5-b]pyridazin-3-yl)-1H-pyrrolo[2,3-b]pyridin-2-yl)pyrrolidine-1-carbonyl)pyridin-3-yl)but-2-enamide]",< 0.1
12,"C=CC(=O)N1CCCC(C(=O)NCCc2cc3c(-c4cnn5ncccc45)ccnc3[nH]2)C1 (centres unmarked) [Example 75, 1-Acryloyl-N-(2-(4-(pyrazolo[1,5-b]pyridazin-3-yl)-1H-pyrrolo[2,3-b]pyridin-2-yl)ethyl)piperidine-3-carboxamide]",< 0.1
13,"C=CC(=O)N1CCC(C(=O)NCCc2cc3c(-c4cnn5ncccc45)ccnc3[nH]2)CC1 [Example 77, 1-Acryloyl-N-(2-(4-(pyrazolo[1,5-b]pyridazin-3-yl)-1H-pyrrolo[2,3-b]pyridin-2-yl)ethyl)piperidine-4-carboxamide]",0.1 to 1
14,"O=C(NCCc1cc2c(-c3cnn4ncccc34)ccnc2[nH]1)[C@@H]1CCCN1C(=O)CO [Example 78, (S)-1-(2-Hydroxyacetyl)-N-(2-(4-(pyrazolo[1,5-b]pyridazin-3-yl)-1H-pyrrolo[2,3-b]pyridin-2-yl)ethyl)pyrrolidine-2-carboxamide]",0.1 to 1
15,"O=C(NCCc1cc2c(-c3cnn4ncccc34)ccnc2[nH]1)[C@H]1CCCN1C(=O)CO [Example 79, (R)-1-(2-Hydroxyacetyl)-N-(2-(4-(pyrazolo[1,5-b]pyridazin-3-yl)-1H-pyrrolo[2,3-b]pyridin-2-yl)ethyl)pyrrolidine-2-carboxamide]",0.1 to 1
16,"C=CC(=O)N1CCC(C(=O)NCc2cc3c(-c4cnn5ncccc45)ccnc3[nH]2)CC1 [Example 80, 1-Acryloyl-N-((4-(pyrazolo[1,5-b]pyridazin-3-yl)-1H-pyrrolo[2,3-b]pyridin-2-yl)methyl)piperidine-4-carboxamide]",1 to 30
17,"CCOCCC(=O)Nc1ccc(C(=O)NCCc2cc3c(-c4cnn5ncccc45)ccnc3[nH]2)cc1 [Example 81, 4-(3-Ethoxypropanamido)-N-(2-(4-(pyrazolo[1,5-b]pyridazin-3-yl)-1H-pyrrolo[2,3-b]pyridin-2-yl)ethyl)benzamide]",< 0.1
18,"O=C(NCCc1cc2c(-c3cnn4ncccc34)ccnc2[nH]1)[C@@H]1CCCN1 [Example 82, (S)—N-(2-(4-(pyrazolo[1,5-b]pyridazin-3-yl)-1H-pyrrolo[2,3-b]pyridin-2-yl)ethyl)pyrrolidine-2-carboxamide]",0.1 to 1
19,"O=C(NCCc1cc2c(-c3cnn4ncccc34)ccnc2[nH]1)[C@@H]1CCCN1C(=O)/C=C/CN1CCCC1 [Example 85, (S,E)-N-(2-(4-(pyrazolo[1,5-b]pyridazin-3-yl)-1H-pyrrolo[2,3-b]pyridin-2-yl)ethyl)-1-(4-(pyrrolidin-1-yl)but-2-enoyl)pyrrolidine-2-carboxamide]",1 to 30

# Results, then the compound that gave them:
row,IC50 [µM],Compound
1,1 to 30,"O=C(NCCc1cc2c(-c3cnn4ncccc34)ccnc2[nH]1)[C@@H]1CCCN1C(=O)/C=C/CN1CCOCC1 [Example 86, (S,E)-1-(4-Morpholinobut-2-enoyl)-N-(2-(4-(pyrazolo[1,5-b]pyridazin-3-yl)-1H-pyrrolo[2,3-b]pyridin-2-yl)ethyl)pyrrolidine-2-carboxamide]"
2,1 to 30,"CN(C)C/C=C/C(=O)N1CCCC[C@H]1C(=O)NCCc1cc2c(-c3cnn4ncccc34)ccnc2[nH]1 [Example 87, (S,E)-1-(4-(Dimethylamino)but-2-enoyl)-N-(2-(4-(pyrazolo[1,5-b]pyridazin-3-yl)-1H-pyrrolo[2,3-b]pyridin-2-yl)ethyl)piperidine-2-carboxamide]"
3,0.1 to 1,"CN(C)C/C=C/C(=O)N1CCCC[C@@H]1C(=O)NCCc1cc2c(-c3cnn4ncccc34)ccnc2[nH]1 [Example 88, (R,E)-1-(4-(Dimethylamino)but-2-enoyl)-N-(2-(4-(pyrazolo[1,5-b]pyridazin-3-yl)-1H-pyrrolo[2,3-b]pyridin-2-yl)ethyl)piperidine-2-carboxamide Formate Salt]"
4,0.1 to 1,"O=C(NCCc1cc2c(-c3cnn4ncccc34)ccnc2[nH]1)[C@@H]1CCCN1S(=O)(=O)c1ccccc1 [Example 89, (S)-1-(phenylsulfonyl)-N-(2-(4-(pyrazolo[1,5-b]pyridazin-3-yl)-1H-pyrrolo[2,3-b]pyridin-2-yl)ethyl)pyrrolidine-2-carboxamide]"
5,< 0.1,"C=CC(=O)N1CCCC[C@@H]1C(=O)NCCc1cc2c(-c3cnn4ncccc34)ccnc2[nH]1 [Example 93, (R)-1-Acryloyl-N-(2-(4-(pyrazolo[1,5-b]pyridazin-3-yl)-1H-pyrrolo[2,3-b]pyridin-2-yl)ethyl)piperidine-2-carboxamide]"
6,1 to 30,"C=CC(=O)N1CCC[C@H]1C(=O)NCCc1cc2c(-c3ccncc3)ccnc2[nH]1 [Example 95, (S)-1-Acryloyl-N-(2-(4-(pyridin-4-yl)-1H-pyrrolo[2,3-b]pyridin-2-yl)ethyl)pyrrolidine-2-carboxamide]"
7,0.1 to 1,"NCCc1cc2c(-c3cnn4ncccc34)c(Cl)cnc2[nH]1 [Example 101, 2-(5-chloro-4-(pyrazolo[1,5-b]pyridazin-3-yl)-1H-pyrrolo[2,3-b]pyridin-2-yl)ethan-1-amine]"
8,1 to 30,"NCCc1cc2c(-c3cccnc3)ccnc2[nH]1 [Example 104, 2-(4-(Pyridin-3-yl)-1H-pyrrolo[2,3-b]pyridin-2-yl)ethan-1-amine]"
9,1 to 30,"C=CC(=O)N1CCC[C@H]1C(=O)NCCc1cc2c(-c3cccnc3)ccnc2[nH]1 [Example 105, (S)-1-Acryloyl-N-(2-(4-(pyridin-3-yl)-1H-pyrrolo[2,3-b]pyridin-2-yl)ethyl)pyrrolidine-2-carboxamide]"
10,1 to 30,"O=C(NCCc1cc2c(-c3ccncc3)ccnc2[nH]1)[C@@H]1CCCN1 [Example 107, (S)—N-(2-(4-(Pyridin-4-yl)-1H-pyrrolo[2,3-b]pyridin-2-yl)ethyl)pyrrolidine-2-carboxamide]"
